Assay results: US11078170B2 (Assembly Biosciences, Inc., priority 2017, dated 2021)

What follows are compounds tested on HBV viral production from HepAD38 cells (assay: Activity of test compounds on viral production from HepAD38 cells (viral load by qPCR of HBV core sequence in supernatant)). Conditions: Hepatitis B virus, 120 h, 5 days incubation, HBV DNA in supernatant by qPCR, top concentration 10 μM, read-out: Viral Load EC50 Activity range.
Type: cell-based
Description: Assay Measuring Activity of Test Compounds on Viral Production from HepAD38 Cells
HepAD38 cells grown in a T-150 flask (Corning, cat #: 430825) with Growth Medium (DMEM/F12 (1:1) (Hyclone, cat #: SH30023.02), 1×Pen/Strep (Invitrogen, cat #: 15140-122), 10% FBS (Tissue Culture Biologics, cat #: 101), 250 μg/mL G418 (Alfa Aesar, cat #: J62671), 1 μg/mL Tetracycline (Teknova, cat #: T3320)) were detached with 0.25% trypsin-EDTA (Invitrogen, cat #: 25200-056). Tetracycline-free treatment medium (15 mL DMEM/F12 (1:1) 1× Pen/step, with 2% FBS, Tet-system approved (Clontech, cat #: 631106) were then added to mix, transferred into a 50 ml conical tube (Falcon, cat #: 21008-918) and spun at 1300 rpm for 5 min. Pelleted cells were then re-suspended/washed with 50 mL of 1×DPBS (Invitrogen, cat #: 14190-136) 2 times and 50 mL treatment medium twice. HepAD38 cells were then re-suspended with 10 mL of treatment medium, syringed and counted. Wells of 96-well clear bottom TC plate (Corning, cat #: 3904) were seeded at 50,000 cells/well in 180 μL of treatment medium, and 20 μL of either 10% DMSO (Sigma, cat #: D4540) as controls or a 10× solution of test compounds in 10% DMSO in treatment media was added for a final compound concentration starting at 10 μM, and plates were incubated in 5% CO2 incubator at 37° C. for 5 days.
Subsequently viral load production was assayed by quantitative PCR (qPCR) of the HBV core sequence. PCR reaction mixture containing forward primers HBV-f 5′-CTGTGCCTTGGGTGGCTTT-3′, which is SEQ ID NO 1, (IDT DNA), Reverse primers HBV-r 5′-[…]-3′, which is SEQ ID NO 2 (IDT DNA), Fluorescent TaqMan™ Probes HBV-probe 5′-FAM/AGCTCCAAA/ZEN/[…]/3IABkFQ-3′ (IDT DNA), which is SEQ ID NO 3, 10 μL/well of PerfeCTa® qPCR ToughMix® (Quanta Biosciences, Cat #: 95114-05K), and 6 µL/well of DEPC water (Alfa Aesar, cat #: J62087) was prepared. Four μL of supernatant was added to 16 μL of the reaction mixture in a qPCR plate (Applied Biosytems, Cat #: 4309849), sealed with a film (Applied Biosystems, Cat #: 4311971), centrifuged for a few seconds, and subsequently run on an Applied Biosystems VIIA7. The PCR mixture was incubated at 45° C. for 5 min, then 95° C. for 10 min, followed by 40 cycles of 10 seconds at 95° C. and 20 seconds at 60° C. Viral load was quantified against known HBV DNA standards by using ViiA™ 7 Software. Viral load in the supernatant from wells with treated cells were compared against viral load in supernatant from DMSO control wells (≥3 per plate). Cell viability assay was performed with CellTiter-Glo Luminescent Cell Viability Assay (Promega, cat #: G7573) with modification. Mixed appropriate amount of CellTiter-Glo (CTG) 1×DPBS in a 1:1 ratio, added 100 uL of the mixture to each well followed completely removal of all supernatant in each well without touching cell surface. Incubated the plate at room temperature for 10 min on an orbital shaker, and then read the plate with a plate reader (TECAN M1000 or Envision). EC50 or CC50 values were calculated through curve-fitting of the four-parameter nonlinear-logistic-regression model (GraphPad Prism or Dotmatics). CC50 values were all >10 μM.

Structure (SMILES)	EC50
N#CCN1C(C(=O)Nc2ccc(F)c(Cl)c2)CC(c2nccs2)NS1(=O)=O (racemic) [HBV-CSU-093, Cis-N-(3-Chloro-4-fluorophenyl)-2-(cyanomethyl)-5-(thiazol-2-yl)-1,2,6-thiadiazinane-3-carboxamide 1,1-dioxide]	> 5000 nM
O=C(Nc1ccc(F)c(Cl)c1)C1CC(c2nccs2)NS(=O)(=O)N1CCOCc1ccccc1 (racemic) [HBV-CSU-095, Cis-2-(2-(benzyloxy)ethyl)-N-(3-chloro-4-fluorophenyl)-5-(thiazol-2-yl)-1,2,6-thiadiazinane-3-carboxamide 1,1-dioxide]	1000 to 5000 nM
CSCCN1C(C(=O)Nc2ccc(F)c(Cl)c2)CC(c2nccs2)NS1(=O)=O (racemic) [HBV-CSU-109, Cis-N-(3-Chloro-4-fluorophenyl)-2-(2-(methylthio)ethyl)-5-(thiazol-2-yl)-1,2,6-thiadiazinane-3-carboxamide 1,1-dioxide]	< 1000 nM
CN1[C@H](C(=O)Nc2ccc(F)c(Cl)c2)C[C@@H](c2ccc(Br)s2)NS1(=O)=O (racemic) [HBV-CSU-114-Trans (Rac), Trans-5-(5-bromothiophen-2-yl)-N-(3-chloro-4-fluorophenyl)-2-methyl-1,2,6-thiadiazinane-3-carboxamide 1,1-dioxide]	> 5000 nM
Cc1ccc(C2CC(C(=O)Nc3ccc(F)c(Cl)c3)N(C)S(=O)(=O)N2)s1 (racemic) [HBV-CSU-115, Cis-N-(3-chloro-4-fluorophenyl)-2-methyl-5-(5-methylthiophen-2-yl)-1,2,6-thiadiazinane-3-carboxamide 1,1-dioxide]	< 1000 nM
CN1C(C(=O)Nc2ccc(F)c(Cl)c2)CC(c2nnc(-c3ccccc3)s2)NS1(=O)=O (racemic) [HBV-CSU-120, Cis-N-(3-Chloro-4-fluorophenyl)-2-methyl-5-(5-phenyl-1,3,4-thiadiazol-2-yl)-1,2,6-thiadiazinane-3-carboxamide 1,1-dioxide]	< 1000 nM
CN1C(C(=O)Nc2ccc(F)c(Cl)c2)CC(c2ncc(Br)s2)NS1(=O)=O (racemic) [HBV-CSU-122, Cis-5-(5-bromothiazol-2-yl)-N-(3-chloro-4-fluorophenyl)-2-methyl-1,2,6-thiadiazinane-3-carboxamide 1,1-dioxide]	< 1000 nM
CCOCCN1C(C(=O)Nc2ccc(F)c(Cl)c2)CC(c2nccs2)NS1(=O)=O (racemic) [HBV-CSU-142, Cis-N-(3-Chloro-4-fluorophenyl)-2-(2-ethoxyethyl)-5-(thiazol-2-yl)-1,2,6-thiadiazinane-3-carboxamide 1,1-dioxide]	< 1000 nM
Cc1csc(C2CC(C(=O)Nc3ccc(F)c(Cl)c3)N(C)S(=O)(=O)N2)c1 (racemic) [HBV-CSU-147, Cis-N-(3-chloro-4-fluorophenyl)-2-methyl-5-(4-methylthiophen-2-yl)-1,2,6-thiadiazinane-3-carboxamide 1,1-dioxide]	< 1000 nM
CN1C(C(=O)Nc2ccc(F)c(Cl)c2)CC(c2nc(Br)cs2)NS1(=O)=O (racemic) [HBV-CSU-150, Cis-5-(4-Bromothiazol-2-yl)-N-(3-chloro-4-fluorophenyl)-2-methyl-1,2,6-thiadiazinane-3-carboxamide 1,1-dioxide]	< 1000 nM
CN1C(C(=O)Nc2ccc(F)c(Cl)c2)CC(c2ccc(-c3ccc(C#N)c(F)c3)s2)NS1(=O)=O (racemic) [HBV-CSU-156, Cis-N-(3-chloro-4-fluorophenyl)-5-(5-(4-cyano-3-fluorophenyl)thiophen-2-yl)-2-methyl-1,2,6-thiadiazinane-3-carboxamide 1,1-dioxide]	< 1000 nM
CN1C(C(=O)Nc2ccc(F)c(Cl)c2)CC(c2ccc(-c3ccc(C(F)(F)F)nc3)s2)NS1(=O)=O (racemic) [HBV-CSU-158, Cis-N-(3-chloro-4-fluorophenyl)-2-methyl-5-(5-(6-(trifluoromethyl)pyridin-3-yl)thiophen-2-yl)-1,2,6-thiadiazinane-3-carboxamide 1,1-dioxide]	1000 to 5000 nM
CN1C(C(=O)Nc2ccc(F)c(Cl)c2)CC(c2ccc(-c3cccnc3)s2)NS1(=O)=O (racemic) [HBV-CSU-159, Cis-N-(3-chloro-4-fluorophenyl)-2-methyl-5-(5-(pyridin-3-yl)thiophen-2-yl)-1,2,6-thiadiazinane-3-carboxamide 1,1-dioxide]	< 1000 nM
CN1C(C(=O)Nc2ccc(F)c(Cl)c2)CC(c2ccc(-c3ccccn3)s2)NS1(=O)=O (racemic) [HBV-CSU-160, Cis-N-(3-chloro-4-fluorophenyl)-2-methyl-5-(5-(pyridin-2-yl)thiophen-2-yl)-1,2,6-thiadiazinane-3-carboxamide 1,1-dioxide]	< 1000 nM
CN1C(C(=O)Nc2ccc(F)c(Cl)c2)CC(c2ccc(-c3cnn(C)c3)s2)NS1(=O)=O (racemic) [HBV-CSU-161, Cis-N-(3-chloro-4-fluorophenyl)-2-methyl-5-(5-(1-methyl-1H-pyrazol-4-yl)thiophen-2-yl)-1,2,6-thiadiazinane-3-carboxamide 1,1-dioxide]	< 1000 nM
CN1[C@H](C(=O)Nc2ccc(F)c(Cl)c2)C[C@@H](c2ccc(-c3cnn(C)c3)s2)NS1(=O)=O (racemic) [HBV-CSU-161-Trans (Rac), Trans-N-(3-chloro-4-fluorophenyl)-2-methyl-5-(5-(1-methyl-1H-pyrazol-4-yl)thiophen-2-yl)-1,2,6-thiadiazinane-3-carboxamide 1,1-dioxide]	1000 to 5000 nM
CN1C(C(=O)Nc2ccc(F)c(Cl)c2)CC(c2ccc(-c3ccc(NS(C)(=O)=O)cc3)s2)NS1(=O)=O (racemic) [HBV-CSU-163, Cis-N-(3-chloro-4-fluorophenyl)-2-methyl-5-(5-(4-(methylsulfonamido)phenyl)thiophen-2-yl)-1,2,6-thiadiazinane-3-carboxamide 1,1-dioxide]	< 1000 nM
CN1C(C(=O)Nc2ccc(F)c(Cl)c2)CC(c2cc(-c3ccc(C#N)c(F)c3)cs2)NS1(=O)=O (racemic) [HBV-CSU-164, Cis-N-(3-chloro-4-fluorophenyl)-5-(4-(4-cyano-3-fluorophenyl)thiophen-2-yl)-2-methyl-1,2,6-thiadiazinane-3-carboxamide 1,1-dioxide]	< 1000 nM
CN1C(C(=O)Nc2ccc(F)c(Cl)c2)CC(c2cc(-c3ccc(Br)c(F)c3)cs2)NS1(=O)=O (racemic) [HBV-CSU-165, Cis-N-(3-chloro-4-fluorophenyl)-5-(4-(4-bromo-3-fluorophenyl)thiophen-2-yl)-2-methyl-1,2,6-thiadiazinane-3-carboxamide 1,1-dioxide]	1000 to 5000 nM
CN1C(C(=O)Nc2ccc(F)c(Cl)c2)CC(c2cc(-c3ccc(C(F)(F)F)nc3)cs2)NS1(=O)=O (racemic) [HBV-CSU-166, Cis-N-(3-chloro-4-fluorophenyl)-2-methyl-5-(4-(6-(trifluoromethyl)pyridin-3-yl)thiophen-2-yl)-1,2,6-thiadiazinane-3-carboxamide 1,1-dioxide]	< 1000 nM
CN1C(C(=O)Nc2ccc(F)c(Cl)c2)CC(c2cc(-c3ccccn3)cs2)NS1(=O)=O (racemic) [HBV-CSU-168, Cis-N-(3-chloro-4-fluorophenyl)-2-methyl-5-(4-(pyridin-2-yl)thiophen-2-yl)-1,2,6-thiadiazinane-3-carboxamide 1,1-dioxide]	< 1000 nM
